Consider ten compounds from patent US20070031511A1, “Method of treatment” (priority 2003, published 2007).

Where no end group is shown, it is not given here. [ ]: non-standard residue; d: D form. pGlu = O=C1CC[C@@H](C(=O)O)N1

Test [1] deals with IMGE-5 cells. Description: IMGE-5 cell proliferation, MTT assay. It is filed as cell-based, mice. The following applies: MTT assay; peptides shown at 1 nM (FIGS. 7A, 8A). As for the experimental part:
(§1) The IMGE-5 cell line was established from the gastric mucosa of mice transgenic for a temperature-sensitive mutant of the SV40 large T antigen (Hollande et al, 2001). IMGE-5 cells were generally grown at 33° C. in DMEM containing 1 unit/ml γ-interferon, 10% FBS, 100 U/ml penicillin, and 100 μg/ml streptomycin (permissive conditions). For all experiments, cells were transferred to 39° C. in the same medium without […] (non-permissive conditions), where they display differentiated characteristics such as expression of functional adherens and tight junctions. All experiments have been performed on cells between passages 20 and 35.
A colorimetric assay was used to measure cell proliferation. Briefly, IMGE-5 cells were seeded in a 96-well plate at a density of 10^4 cells/well in DMEM containing 10% FBS and antibiotics. The following day, cells were synchronized in Go by incubation for 24 h in the same medium lacking FBS. The medium was replaced the next day with fresh medium containing 1% FBS and antibiotics and the peptides under investigation, and incubation was continued for 72 h. 15 μl of 5 mg/ml 3-(4,5-dimethylthiazol-2-yl)-2-5-diphenyltetrazolium bromide (MTT, Sigma, St Louis Mo.) was added per well, and the plate was incubated at 37° C. for 4 h before the medium was discarded. 200 μl 40 mM HCl in isopropanol was added to lyse the cells, and the absorbance at 570 nm was read on a BioRad Model 550 Microplate reader (BioRad, Hercules, Calif.).
(Tetrazolium assays rely on reduction of a dye to a coloured formazan, in cell work by metabolically active cells.)

Test [2] deals with IMGE-5 cells. Kind of test: Wound healing / cell migration assay. Type of test: cell-based, mice. Conditions: wound healing assay; fragments and mutants shown at 1 nM (FIGS. 7B, 8B). The protocol: as §1
In order to assess the effects of different stimuli on cell migration, wound healing experiments were performed as detailed elsewhere (Hollande et al, 1997). In brief, IMGE-5 cells were grown in 12-well plates in DMEM at 33° C. until they reached 80% confluence, then shifted to 39° C. and starved of serum for 24 h. The confluent monolayer was wounded using a 20 μl-pipette tip, and cells were then washed 3 times with phosphate-buffered saline (PBS: 2.7 mM KCl, 1.5 MM KH2PO4, 142 mM NaCl, and 10 mM Na2HPO4, pH 6.95) and treated with or without different compounds in DMEM with antibiotics. Morphology and migration of cells were observed and photographed immediately, and after treatment for 17 and 24 h. Wound width was measured at six different positions on the 24 h photographs, and averages calculated.

Test [3] relates to IMGE-5 cells. Description: IMGE-5 cell proliferation, [3H]-thymidine incorporation. Conditions: for Inhibition of Ggly-stimulated IMGE-5 cell proliferation by iron chelator: [3H]-thymidine incorporation (FIG. 10); for S (%), maximum % stimulation: IMGE cells, thymidine uptake, best fit at saturating concentration; for Effect of DFO on proliferation induced by the peptide: peptide 100 nM, plus or minus 1 μM DFO, [3H]-thymidine incorporation. It is filed as cell-based, mice. The protocol: In some cases cell proliferation was also measured by [^3H]-thymidine incorporation as described previously (Oiry et al., 2000). Briefly, IMGE-5 cells (10^5/well) were seeded in 24-well plates in medium containing 10% FBS and 1 unit/ml γ-interferon. On the next day cells were serum starved and shifted to 39° C. for 24 hr. Cells were then incubated with or without various compounds at 39° C. for 17 h in medium supplemented with 0.2% bovine serum albumin only. Cells were incubated with 0.5 μCi of [^3H] thymidine in the same medium at 39° C. for 4 h, washed twice with PBS (2.7 mM KCl, 142 mM NaCl, 1.5 mM KH2PO4, 10 mM Na2HPO4, pH 6.95) containing 0.2% bovine serum albumin and incubated at 4° C. for 30 min with 5% trichloroacetic acid. Finally cells were washed with 95% ethanol to remove unincorporated [^3H] thymidine, and lysed with 1 M NaOH. Lysates were transferred to counting vials and neutralized with 1M HCl. The radioactivity of each lysate was counted in a β-counter after the addition of 10 ml of Pico-fluor 40 solution (Packard, Meriden, Conn.).
In some experiments IMGE-5 cells were seeded in a 96-well plate at a density of 3-5×10^3 cells/well in.DMEM containing 10% FBS, and cultured at 33° C.. On the following day, the cells were serum-starved at 33° C. for 24 h. […] The cells were cultured at 39° C. for 24 h, and then harvested using a NUNC cell harvester. The amount of ^3H-thymidine incorporated through DNA synthesis was detected with a β-counter (Packard, Meriden, Conn.). […]

Test [4] is described as follows: Quenching of peptide tryptophan fluorescence by ferric ions (stoichiometry, apparent Kd). Type of test: binding. Conditions: 10 mM sodium acetate pH 4.0, 100 mM NaCl, 0.005% Tween 20; mean ± S.E.; read-out: Kd (μM), apparent dissociation constant for ferric ions. As for the experimental part: The tryptophan fluorescence of peptide solutions was measured in 3 mL quartz cuvettes thermostated at […], with a Spex Fluorolog-2 spectrofluorimeter (Spex Industries, Edison, N.J.), with the excitation and emission wavelengths set at 290 and 345 nm, respectively. The quenching of tryptophan fluorescence induced by the binding of metal ions was used to calculate the fraction of binding sites occupied, fa: fa=(yf−y)/(yf−yb) where y is the fluorescence signal at a given concentration of metal ions and yb and yf are the signals when the binding sites are fully occupied and unoccupied, respectively (Winzor et al, 1995). The stoichiometry, p, and apparent dissociation constant, Kd, were then obtained, using the program Sigmastat (Jandel Scientific, San Rafael, Calif.), from the intercept and slope of a linear regression of the data transformed as described by Winzor and Sawyer (1995) in terms of the equation Cs/fa=pCa+Kd/(1−fa) where Cs is the total concentration of metal ions, and Ca is the total concentration of glycine-extended gastrin17. For the bismuth binding studies, the data was fitted by non-linear regression with the program Sigmaplot (Jandel Scientific, San Rafael, Calif.) to the equations for models with one binding site or two binding sites with identical affinities: fa=x/(Kd1+x) or to the model with two binding sites with different affinities: fa=(Kd1·x+Kd2·x+2x^2)/2(Kd1·Kd2+Kd1·x+Kd2·x+x^2) where x is the concentration of free metal ions, Kd1 is the first site dissociation constant and Kd2 is the second site dissociation constant. For the one-site model the value of x at any given total concentration of metal ions was obtained by exact solution of the appropriate quadratic (Malby et al, 2001). For the two-site models the value of x was obtained by an iterative Newton-Raphson procedure (Linse et al, 1991). Absorption Spectroscopy
The tryptophan fluorescence of progastrin6-80, glycine-extended gastrin17 and related peptides was measured in the presence of increasing concentrations of ferric ions in 10 mM sodium acetate, pH 4.0, 100 mM NaCl, 0.005% Tween 20. […] Values from the indicated number of independent experiments were combined to obtain the mean values (±S.E.) presented above. No binding of ferric ions to Ggly1-4 or Ggly12-18 was observed.
The tryptophan fluorescence of amidated gastrin17 and related peptides was measured in the presence of increasing concentrations of ferric ions at pH 4.0 (8). Values of the stoichiometry and the apparent dissociation constant (Kd) were obtained from linear transformations of the data presented in FIG. 20A by least squares fitting. Values from the indicated number of independent experiments were combined to obtain the mean values (±S.E.) presented above.

Turning to “Ggly12-18: C-terminal heptapeptide of Ggly, SEQ ID NO:8 (YGWMDFG; listed as Homo sapiens)”, the “Stimulation of IMGE-5 cell proliferation” value with IMGE-5 cells [1] is “neither of these fragments stimulated proliferation”. The “Stimulation of IMGE-5 cell migration” value in the test on IMGE-5 cells [2] was “Nor did they stimulate migration”.
Regarding `COc1cccc2c1C(=O)c1c(O)c3c(c(O)c1C2=O)C[C@@](O)(C(=O)CO)C[C@@H]3O[C@H]1C[C@H](N)[C@H](O)[C@H](C)O1` [doxorubicin], the “Inhibition of Ggly-stimulated IMGE-5 cell proliferation by iron chelator” value in the test on IMGE-5 cells [3] is “inhibited Ggly-stimulated IMGE-5 cell proliferation in a dose-dependent manner”.
As to LEEEEEA [LE5A], in the test with IMGE-5 cells [3], the “S (%), maximum % stimulation” value was found to be 34.7% and the “Effect of DFO on proliferation induced by the peptide” value (from here on “Effect of DFO”) was “lower in the presence of DFO, although the reduction did not reach significance”.
The matching figures for EEEEEA [Peptide E5A]: 29.1% and “no significant reduction”.
Consider “GglyE6A: Ggly mutant, Glu6 replaced by Ala, SEQ ID NO:10 ([pGlu]GPWLAEEEEAYGWMDFG; ends and bridges not checked)”, for which the Kd in test [4] amounted to 0.23 ± 0.02 µM. Moreover, the “Stimulation of IMGE-5 cell proliferation” value in the test on IMGE-5 cells [1] is on record as “to the same extent as Ggly”. The “Stimulation of IMGE-5 cell migration” value in the test with IMGE-5 cells [2] is listed as “to the same extent as Ggly”.
Regarding EEEEEAY [Peptide E5AY], in the test on IMGE-5 cells [3], the “S (%), maximum % stimulation” value amounted to 36.1% and the “Effect of DFO” value is “significantly blocked by DFO”.
On to EEEEE [Peptide E5], for which, in the test with IMGE-5 cells [3], the “S (%), maximum % stimulation” value was 22.5% and the “Effect of DFO” value is “no significant reduction”.
Turning to `Oc1c(I)cc(Cl)c2cccnc12` [clioquinol], the “Inhibition of Ggly-stimulated IMGE-5 cell proliferation by iron chelator” value with IMGE-5 cells [3] was “inhibited Ggly-stimulated IMGE-5 cell proliferation in a dose-dependent manner”.
Take LEEEEE [LE5]: in the test on IMGE-5 cells [3], the “S (%), maximum % stimulation” value is 29.9% and the “Effect of DFO” value is reported as “no significant reduction”.
“Ggly1-4: fragment of Ggly, residues 1-4, SEQ ID NO:6 ([pGlu]GPW; listed as Homo sapiens)”: in the test with IMGE-5 cells [1], the “Stimulation of IMGE-5 cell proliferation” value is “neither of these fragments stimulated proliferation”. Also, in the test with IMGE-5 cells [2], the “Stimulation of IMGE-5 cell migration” value was “Nor did they stimulate migration”.
